Measurements reported in patent US20260137703A1, “2-AMINO-PYRIDO[2,3-D]PYRIMIDIN-7(8H)-ONE AND 7-AMINO-1-PYRIMIDO[4,5-D]PYRIMIDIN-2(1 H)-ONE DERIVATIVES AS EGFR INHIBITORS FOR THE TREATMENT OF CANCER” (Cancer Research Technology Limited, priority 2022, published 2026).

Tests used:
[1] = molecular target: T1, Phospho-EGFR (Tyr1068) in H1975 cells (Homo sapiens, UniProt P00533, L858R/T790M); test: HTRF pEGFR/total EGFR in H1975 cells; format: cell-based; details: ratio pEGFR/total EGFR, compound 3 hours
T1 construct: host or cells: H1975
T1 sequence (P00533 25-1210 T790M/L858R): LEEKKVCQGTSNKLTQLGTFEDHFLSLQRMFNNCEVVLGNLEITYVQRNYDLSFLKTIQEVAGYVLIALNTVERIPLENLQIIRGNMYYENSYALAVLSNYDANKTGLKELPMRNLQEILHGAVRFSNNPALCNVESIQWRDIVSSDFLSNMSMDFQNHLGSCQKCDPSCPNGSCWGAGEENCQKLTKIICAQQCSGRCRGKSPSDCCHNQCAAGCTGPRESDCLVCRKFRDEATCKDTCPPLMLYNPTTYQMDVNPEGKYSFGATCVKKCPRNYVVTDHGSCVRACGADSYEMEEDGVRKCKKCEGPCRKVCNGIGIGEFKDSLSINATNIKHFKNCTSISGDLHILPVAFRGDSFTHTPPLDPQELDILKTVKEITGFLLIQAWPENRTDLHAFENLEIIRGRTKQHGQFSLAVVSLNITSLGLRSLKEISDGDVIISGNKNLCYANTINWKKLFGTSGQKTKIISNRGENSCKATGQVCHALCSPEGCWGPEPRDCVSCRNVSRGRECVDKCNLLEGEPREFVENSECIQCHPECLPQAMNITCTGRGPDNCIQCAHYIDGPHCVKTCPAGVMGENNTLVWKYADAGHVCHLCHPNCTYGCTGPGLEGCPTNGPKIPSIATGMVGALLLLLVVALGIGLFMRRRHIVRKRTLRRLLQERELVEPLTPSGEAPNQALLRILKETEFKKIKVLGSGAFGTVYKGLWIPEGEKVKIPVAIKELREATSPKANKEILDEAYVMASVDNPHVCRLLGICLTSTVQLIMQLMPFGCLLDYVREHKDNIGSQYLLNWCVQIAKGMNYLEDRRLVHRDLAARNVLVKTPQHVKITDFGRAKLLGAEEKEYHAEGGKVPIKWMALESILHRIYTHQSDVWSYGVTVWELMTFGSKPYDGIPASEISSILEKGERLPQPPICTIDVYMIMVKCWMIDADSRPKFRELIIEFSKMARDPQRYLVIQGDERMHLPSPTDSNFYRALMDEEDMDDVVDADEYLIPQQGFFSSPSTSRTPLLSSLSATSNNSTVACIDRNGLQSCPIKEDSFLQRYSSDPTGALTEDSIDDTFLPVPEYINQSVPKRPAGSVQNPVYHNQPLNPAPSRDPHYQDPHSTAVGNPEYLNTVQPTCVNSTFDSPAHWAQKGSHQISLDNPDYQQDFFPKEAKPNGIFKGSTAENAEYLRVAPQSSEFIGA
Protocol: (§1) H1975 cells (ATCC CRL-5908) were plated at 20,000 cells per well in 96 well plates and placed at 37° C. 5% CO2. Once adhered (after 24 h) cells were treated with compounds dissolved in DMSO at a final concentration of 0.1% DMSO in media. Compounds were diluted in media then added to cells for 3 hours in duplicate. Compound and media were removed from the cells, then 50 ul of HTRF lysis buffer is added (lysis buffer was diluted from 4× stock to 1× in DI water, with 1% blocking agent also added). Cells were lysed on a plate shaker (2000 rpm) for 30 minutes at room temperature. pEGFR expression was monitored using the Cisbio Phospho-EGFR (Tyri068) cellular kit (64EG1PEH). Total EGFR expression was monitored using the Cisbio Total EGFR cellular kit (64NG1PEH) as per manufacturer's instructions. Fluorescence emission was read at two different wavelengths (665 nm and 620 nm) on a PheraStar. Results were calculated as ratio of pEGFR/total EGFR and then percentage of 0 μM control.

[2] = molecular target: CtermHisTag-mEGFR Wild type (Homo sapiens, UniProt P00533); test: biochemical
CtermHisTag-mEGFR Wild type, sequence (P00533 whole entry): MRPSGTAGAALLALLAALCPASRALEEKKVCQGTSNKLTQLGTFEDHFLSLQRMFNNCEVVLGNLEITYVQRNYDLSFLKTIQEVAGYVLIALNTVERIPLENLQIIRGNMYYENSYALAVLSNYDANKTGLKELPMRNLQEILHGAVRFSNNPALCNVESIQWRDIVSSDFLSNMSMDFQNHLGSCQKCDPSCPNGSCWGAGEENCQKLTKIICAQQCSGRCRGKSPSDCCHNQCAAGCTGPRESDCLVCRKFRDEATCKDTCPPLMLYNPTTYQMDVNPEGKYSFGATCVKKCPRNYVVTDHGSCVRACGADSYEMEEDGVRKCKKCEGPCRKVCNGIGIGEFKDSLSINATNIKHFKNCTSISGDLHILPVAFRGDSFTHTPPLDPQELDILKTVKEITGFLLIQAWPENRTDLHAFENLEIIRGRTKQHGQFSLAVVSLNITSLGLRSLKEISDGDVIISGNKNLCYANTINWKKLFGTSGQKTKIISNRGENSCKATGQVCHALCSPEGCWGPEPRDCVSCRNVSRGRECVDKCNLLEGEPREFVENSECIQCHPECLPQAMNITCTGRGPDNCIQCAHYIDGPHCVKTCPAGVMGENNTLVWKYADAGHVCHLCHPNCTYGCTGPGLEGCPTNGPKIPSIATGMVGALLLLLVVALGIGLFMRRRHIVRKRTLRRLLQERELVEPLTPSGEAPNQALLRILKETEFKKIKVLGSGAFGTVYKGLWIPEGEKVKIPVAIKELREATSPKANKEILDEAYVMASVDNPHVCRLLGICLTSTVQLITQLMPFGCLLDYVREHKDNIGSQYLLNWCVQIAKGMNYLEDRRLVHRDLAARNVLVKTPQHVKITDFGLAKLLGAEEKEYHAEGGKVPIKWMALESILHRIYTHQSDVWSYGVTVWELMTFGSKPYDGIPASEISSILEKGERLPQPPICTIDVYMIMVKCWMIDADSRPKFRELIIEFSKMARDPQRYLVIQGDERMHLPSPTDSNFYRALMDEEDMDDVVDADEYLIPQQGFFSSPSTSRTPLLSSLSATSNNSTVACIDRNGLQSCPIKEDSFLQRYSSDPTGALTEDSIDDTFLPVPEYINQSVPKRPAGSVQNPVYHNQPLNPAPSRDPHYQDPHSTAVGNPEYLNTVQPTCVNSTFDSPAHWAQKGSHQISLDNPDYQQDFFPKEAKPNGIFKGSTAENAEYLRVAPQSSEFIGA

[3] = molecular target: T2, Phospho-EGFR (Tyr1068) in A431 cells (Homo sapiens, UniProt P00533); test: HTRF pEGFR/total EGFR in A431 cells with EGF stimulation; format: cell-based; details: ratio pEGFR/total EGFR, compound 2.5 hours then 100 ng/ml EGF 30 mins
T2 construct: endogenous in cells; host or cells: A431
T2 sequence (P00533 25-1210): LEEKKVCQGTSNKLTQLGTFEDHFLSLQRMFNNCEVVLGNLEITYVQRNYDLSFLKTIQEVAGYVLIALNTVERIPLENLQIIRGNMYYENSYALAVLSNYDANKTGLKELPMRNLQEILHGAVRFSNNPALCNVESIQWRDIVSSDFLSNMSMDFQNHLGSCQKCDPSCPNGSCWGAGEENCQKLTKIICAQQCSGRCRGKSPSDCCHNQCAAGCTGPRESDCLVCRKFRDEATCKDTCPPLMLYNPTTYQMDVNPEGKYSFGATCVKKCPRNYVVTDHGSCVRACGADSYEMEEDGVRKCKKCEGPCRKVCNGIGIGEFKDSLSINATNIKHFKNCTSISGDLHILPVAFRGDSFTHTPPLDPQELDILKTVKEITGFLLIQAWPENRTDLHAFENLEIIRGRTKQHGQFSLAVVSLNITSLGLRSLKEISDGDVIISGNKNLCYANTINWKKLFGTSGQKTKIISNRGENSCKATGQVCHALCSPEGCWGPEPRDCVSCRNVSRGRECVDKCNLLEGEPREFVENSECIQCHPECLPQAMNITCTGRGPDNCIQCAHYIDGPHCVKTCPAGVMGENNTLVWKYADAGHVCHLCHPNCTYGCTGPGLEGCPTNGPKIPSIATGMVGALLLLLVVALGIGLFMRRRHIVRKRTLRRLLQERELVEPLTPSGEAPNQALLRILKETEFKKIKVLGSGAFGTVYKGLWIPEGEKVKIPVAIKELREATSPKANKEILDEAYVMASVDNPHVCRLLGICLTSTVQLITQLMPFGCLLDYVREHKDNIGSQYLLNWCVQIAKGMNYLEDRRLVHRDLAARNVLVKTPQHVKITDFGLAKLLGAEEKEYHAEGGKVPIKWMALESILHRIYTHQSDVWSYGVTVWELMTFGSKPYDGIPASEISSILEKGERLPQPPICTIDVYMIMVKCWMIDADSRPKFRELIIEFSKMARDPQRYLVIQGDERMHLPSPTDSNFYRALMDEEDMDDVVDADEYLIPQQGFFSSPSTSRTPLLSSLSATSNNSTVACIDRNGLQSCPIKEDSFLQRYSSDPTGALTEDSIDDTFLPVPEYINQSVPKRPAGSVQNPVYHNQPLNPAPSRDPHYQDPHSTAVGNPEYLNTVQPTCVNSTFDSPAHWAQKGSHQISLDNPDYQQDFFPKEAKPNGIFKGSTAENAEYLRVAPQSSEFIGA
Protocol: Cells were plated at 20,000 cells per well in 96 well plates and placed at 37° C. 5% CO2. Once adhered (after 24 h) cells were treated with compounds dissolved in DMSO at a final concentration of 0.1% DMSO in media. Compounds were diluted in media then added to cells for 2.5 hours in duplicate, 100 ng/ml EGF (ThermoFisher, PHG0311) was added to all compound treated cells as well as a control for 30 mins. Compound and media were removed from the cells, then 50 ul of HTRF lysis buffer was added (lysis buffer was diluted from 4× stock to 1× in DI water, with 1% blocking agent also added). Cells were lysed on a plate shaker (2000 rpm) for 30 minutes at room temperature. pEGFR expression was monitored using the Cisbio Phospho-EGFR (Tyr1068) cellular kit (64EG1PEH). Total EGFR expression was monitored using the Cisbio Total EGFR cellular kit (64NG1PEH) as per manufacturer's instructions. Fluorescence emission was read at two different wavelengths (665 nm and 620 nm) on a PheraStar. Results were calculated as ratio of pEGFR/total EGFR and then percentage of 0 μM control.

[4] = molecular target: T3, Phospho-EGFR (Tyr1068) in H1975 C797S cells (CRISPR-edited EGFR C797S) (Homo sapiens, UniProt P00533, C797S/L858R/T790M); test: HTRF pEGFR/total EGFR in H1975 C797S cells; format: cell-based; details: ratio pEGFR/total EGFR, compound 3 hours
T3 construct: host or cells: H1975 C797S (CRISPR-edited)
T3 sequence (P00533 25-1210 T790M/C797S/L858R): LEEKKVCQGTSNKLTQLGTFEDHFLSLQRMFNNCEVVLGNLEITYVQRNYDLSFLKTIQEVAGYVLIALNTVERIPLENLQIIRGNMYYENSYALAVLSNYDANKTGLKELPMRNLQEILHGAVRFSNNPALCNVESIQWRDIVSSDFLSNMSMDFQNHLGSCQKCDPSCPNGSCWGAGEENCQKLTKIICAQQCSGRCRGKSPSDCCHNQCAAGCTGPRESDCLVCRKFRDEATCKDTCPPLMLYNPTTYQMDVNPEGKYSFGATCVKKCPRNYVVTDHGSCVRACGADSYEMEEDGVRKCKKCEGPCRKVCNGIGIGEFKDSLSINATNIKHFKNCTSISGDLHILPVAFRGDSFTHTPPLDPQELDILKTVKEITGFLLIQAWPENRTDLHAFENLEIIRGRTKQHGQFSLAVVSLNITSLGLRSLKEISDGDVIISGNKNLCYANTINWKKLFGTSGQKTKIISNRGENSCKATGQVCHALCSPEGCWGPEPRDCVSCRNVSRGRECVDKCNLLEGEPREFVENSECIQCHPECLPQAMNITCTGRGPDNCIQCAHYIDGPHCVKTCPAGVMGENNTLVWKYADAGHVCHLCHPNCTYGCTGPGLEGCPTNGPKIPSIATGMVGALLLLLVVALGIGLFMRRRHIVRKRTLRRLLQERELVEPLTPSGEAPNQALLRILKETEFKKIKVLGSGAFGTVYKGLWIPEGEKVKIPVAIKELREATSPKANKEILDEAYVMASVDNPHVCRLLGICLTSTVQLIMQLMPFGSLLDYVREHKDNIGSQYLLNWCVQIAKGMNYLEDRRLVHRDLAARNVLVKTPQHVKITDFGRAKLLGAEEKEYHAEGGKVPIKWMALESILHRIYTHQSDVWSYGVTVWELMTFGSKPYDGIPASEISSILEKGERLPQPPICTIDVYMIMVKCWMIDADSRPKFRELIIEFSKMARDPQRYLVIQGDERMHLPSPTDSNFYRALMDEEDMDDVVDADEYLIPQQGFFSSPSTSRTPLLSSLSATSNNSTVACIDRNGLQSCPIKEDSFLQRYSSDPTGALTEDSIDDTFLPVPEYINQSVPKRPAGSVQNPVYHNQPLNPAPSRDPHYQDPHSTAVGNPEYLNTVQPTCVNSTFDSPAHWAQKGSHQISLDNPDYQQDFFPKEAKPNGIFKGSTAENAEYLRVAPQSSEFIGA
Protocol: as §1, with “[…]. Once” for “H1975 cells (ATCC CRL-5908) were plated at 20,000 cells per well in 96 well plates and placed at 37° C. 5% CO2. Once”, “buffer was” for “buffer is”, “Phospho-EGFR (Tyr1068)” for “Phospho-EGFR (Tyri068)”

Row | IC50 [1] [µM] | IC50 [2] [µM] | IC50 [3] [µM] | IC50 [4] [µM] | Structure (SMILES)
1 | > 3 | > 10 | > 3 | > 3 | C#Cc1cc(=O)n(-c2ccccc2)c2cc(Nc3ccccc3OC)ncc12 [Example 3, 4-Ethynyl-7-[(2-methoxyphenyl)amino]-1-phenyl-1,6-naphthyridin-2-one]
2 | < 0.5 | < 1 | 1 to 3 | < 0.5 | C#Cc1cc(=O)n(-c2ccccc2)c2nc(Nc3ccc(N4CCOCC4)cc3)ncc12 [Example 6, 5-Ethynyl-2-((4-morpholinophenyl)amino)-8-phenylpyrido[2,3-d]pyrimidin-7(8H)-one]
3 | 1 to 3 | 1 to 10 | > 3 | 1 to 3 | C#Cc1cc(=O)n(-c2ccccc2)c2nc(Nc3ccc(N(C)C(=O)CN(C)C)cc3OC)ncc12 [Example 7, 2-(Dimethylamino)-N-(4-((5-ethynyl-7-oxo-8-phenyl-7,8-dihydropyrido[2,3-d]pyrimidin-2-yl)amino)-3-methoxyphenyl)-N-methylacetamide]
4 | < 0.5 | < 1 | > 3 | < 0.5 | C#Cc1cc(=O)n(-c2ccccc2)c2nc(Nc3ccc(N(C)CCCN(C)C)cc3)ncc12 [Example 9, 2-((4-((3-(Dimethylamino)propyl)(methyl)amino)phenyl)amino)-5-ethynyl-8-phenylpyrido[2,3-d]pyrimidin-7(8H)-one]
5 | > 3 | < 1 | > 3 | > 3 | C#Cc1cc(=O)n(-c2ccccc2)c2nc(NC3CCN(S(C)(=O)=O)CC3)ncc12 [Example 10, 5-Ethynyl-2-((1-(methylsulfonyl)piperidin-4-yl)amino)-8-phenylpyrido[2,3-d]pyrimidin-7(8H)-one]
6 | < 0.5 | < 1 | > 3 | < 0.5 | C#Cc1cc(=O)n(-c2ccccc2)c2nc(Nc3ccc(N4CCN(C)CC4)c(C)c3)ncc12 [Example 12, 5-Ethynyl-2-{[3-methyl-4-(4-methylpiperazin-1-yl)phenyl]amino}-8-phenylpyrido[2,3-d]pyrimidin-7-one]
7 | < 0.5 | < 1 | > 3 | < 0.5 | C#Cc1cc(=O)n(-c2ccccc2)c2nc(Nc3ccc(N4CCNCC4)cc3)ncc12 [Example 14, 5-Ethynyl-8-phenyl-2-{[4-(piperazin-1-yl)phenyl]amino}pyrido[2,3-d]pyrimidin-7-one]
8 | < 0.5 | < 1 | > 3 | < 0.5 | C#Cc1cc(=O)n(-c2ccccc2)c2nc(Nc3ccc(N4CCN(CC)CC4)cc3)ncc12 [Example 15, 2-{[4-(4-Ethylpiperazin-1-yl)phenyl]amino}-5-ethynyl-8-phenylpyrido[2,3-d]pyrimidin-7-one]
9 | < 0.5 | < 1 | 1 to 3 | < 0.5 | C#Cc1cc(=O)n(-c2ccccc2)c2nc(Nc3ccc(N4CCN(C(C)C)CC4)cc3)ncc12 [Example 16, 5-Ethynyl-2-{[4-(4-isopropylpiperazin-1-yl)phenyl]amino}-8-phenylpyrido[2,3-d]pyrimidin-7-one]
10 | < 0.5 | < 1 | 1 to 3 | < 0.5 | C#Cc1cc(=O)n(-c2ccccc2)c2nc(Nc3ccc(N4CCN(CCO)CC4)cc3)ncc12 [Example 17, 5-ethynyl-2-({4-[4-(2-hydroxyethyl)piperazin-1-yl]phenyl}amino)-8-phenylpyrido[2,3-d]pyrimidin-7-one]
11 | > 3 | – | > 3 | > 3 | C#Cc1c(-c2c(Cl)cccc2Cl)c(=O)n(C)c2nc(Nc3cccc(CO)c3)ncc12 [Example 125, 6-(2,6-dichlorophenyl)-5-ethynyl-2-{[3-(hydroxymethyl)phenyl]amino}-8-methylpyrido[2,3-d]pyrimidin-7-one]
12 | – | > 10 | – | – | C=Cc1c(-c2c(Cl)cccc2Cl)c(=O)n(C)c2nc(Nc3cccc(CO)c3)ncc12 [Example 164, 6-(2,6-dichlorophenyl)-5-ethenyl-2-{[3-(hydroxymethyl)phenyl]amino}-8-methylpyrido[2,3-d]pyrimidin-7-one]
13 | – | > 10 | – | – | C=Cc1c(-c2ccccc2Cl)c(=O)n(C)c2nc(Nc3ccc(N(C)CCN(C)C)cc3)ncc12 [Example 165, 6-(2-chlorophenyl)-2-[(4-{[2-(dimethylamino)ethyl](methyl)amino}phenyl)amino]-5-ethenyl-8-methylpyrido[2,3-d]pyrimidin-7-one]
14 | – | > 10 | – | – | C=Cc1c(Cc2ccccc2)c(=O)n(C)c2nc(Nc3ccc(N(C)CCN(C)C)cc3)ncc12 [Example 166, 6-benzyl-2-[(4-{[2-(dimethylamino)ethyl](methyl)amino}phenyl)amino]-5-ethenyl-8-methylpyrido[2,3-d]pyrimidin-7-one]
15 | – | > 10 | – | – | C=Cc1c(-c2c(Cl)cccc2Cl)c(=O)n(C)c2nc(Nc3ccc(N(C)CCN(C)C)cc3)ncc12 [Example 167, 6-(2,6-dichlorophenyl)-2-[(4-{[2-(dimethylamino)ethyl](methyl)amino}phenyl)amino]-5-ethenyl-8-methylpyrido[2,3-d]pyrimidin-7-one]
16 | – | > 10 | – | – | C=Cc1c(-c2ccccc2Cl)c(=O)n(C)c2nc(Nc3cccc(OC)c3)ncc12 [Example 168, 6-(2-chlorophenyl)-5-ethenyl-2-[(3-methoxyphenyl)amino]-8-methylpyrido[2,3-d]pyrimidin-7-one]
17 | – | 1 to 10 | – | – | C=Cc1c(-c2ccccc2Cl)c(=O)n(C)c2nc(Nc3cccc(CO)c3)ncc12 [Example 169, 6-(2-chlorophenyl)-5-ethenyl-2-{[3-(hydroxymethyl)phenyl]amino}-8-methylpyrido[2,3-]pyrimidin-7-one]
18 | – | > 10 | – | – | C=Cc1c(-c2ccccc2Cl)c(=O)n(C)c2nc(N)ncc12 [Example 173, 2-amino-6-(2-chlorophenyl)-5-ethenyl-8-methylpyrido[2,3-d]pyrimidin-7-one]
19 | – | > 10 | – | – | C=Cc1c(-c2ccccc2Cl)c(=O)n(C)c2nc(NCCCCN3CCN(C)CC3)ncc12 [Example 174, 6-(2-chlorophenyl)-8-methyl-2-((4-(4-methylpiperazin-1-yl)butyl)amino)-5-vinylpyrido[2,3-d]pyrimidin-7(8H)-one]
20 | > 3 | > 10 | – | > 3 | C#Cc1cc(=O)n(C2CCCC2)c2nc(Nc3ccccc3N3CCCC(CS(C)(=O)=O)C3)ncc12 (stereo not drawn) [Example 202, 8-Cyclopentyl-5-ethynyl-2-({2-[3-(methanesulfonylmethyl)piperidin-1-yl]phenyl}amino)pyrido[2,3-d]pyrimidin-7-one]
21 | > 3 | < 1 | – | > 3 | C#Cc1cc(=O)n(C2CCCC2)c2nc(Nc3cccc(N(C)[C@H]4CC[C@@H](CS(C)(=O)=O)CC4)c3)ncc12 [Example 204]
22 | < 0.5 | < 1 | – | < 0.5 | C#Cc1cc(=O)n2c3nc(ncc13)Nc1ccc(N3CCN(C)CC3)c(c1)OC[C@@H]1CC[C@@H](C1)C2 [Example 233, (5^1S,5^3R)-3^5-Ethynyl-1^4-(4-methylpiperazin-1-yl)-3^7,3^8-dihydro-7-oxa-2-aza-3(2,8)-pyrido[2,3-d]pyrimidina-1(1,3)-benzena-5(1,3)-cyclopentanacycloheptaphan-3^7-one]
